Reference: US11110158B2, “Prostate-associated antigens and vaccine-based immunotherapy regimens” (Pfizer Inc., priority 2012, dated 2021)
“And” between values parts separate entries of the source, which are not always exact repeats. Equal values may be shown once. Read-outs that look alike come from different tables or passages of the source.

Columns and labels:
subcutaneous TUBO tumors = assay: Subcutaneous TUBO tumor growth and survival in BALB/neuT mice, sunitinib malate with cancer vaccine; type: in vivo, mouse; conditions: FIG. 33D; Sutent 20 mg/kg for 34 days combined with cancer vaccine
Description: The Anti-tumor efficacy of sunitinib malate in combination with an anti-cancer DNA vaccine was investigated in BALB/neuT transgenic female mice. Heterozygote BALB/neuT transgenic female mice that express rat Her-2 (rHer-2) tumor associate antigen were implanted subcutaneously with 1e6 TUBO cells expressing rHer-2 which are derived from the spontaneous mammary tumors of BALB/neuT mice. After 7 days post tumor cell implantation, the mice were dosed once a day orally with either vehicle or sunitinib malate at doses as indicated in the legends. Three days after the initiation of sunitinib malate therapy, the mice were immunized with regimens comprised of either (a) control vaccine that expresses an antigen that is not expressed in the tumor or the mouse or (b) DNA cancer vaccine construct that expresses a rat Her-2 antigen of SEQ ID NO: 54 (rHER2) which is expressed in the tumor and the mouse. The tumor growth rate was analyzed by measuring the long (a) and short diameter (b) of the subcutaneous TUBO tumors twice a week and calculating the volume as a×b^2×0.5 mm^3. The average and standard error of the mean of the tumor volumes from 10 mice per each treatment group are plotted against the days after tumor implantation. […]

[1] = Kinetics of blood sunitinib by LC/MS/MS in BALB/neuT mice with subcutaneous TUBO tumors; type: in vivo, mouse; conditions: for concentration at 2 h: peak at 2 hrs
Description: The kinetics of blood sunitinib was investigated in BALB/neuT mice with subcutaneous TUBO tumors. Briefly, 20 mice per each treatment group were given Sutent orally, at 20 mg/kg once a day (SID) or at 10 mg/kg twice a day (BID) with 6 hr intervals, 6 days after tumor implantation. Submandibular blood from 2-3 mice was collected into lithium heparin tubes at several time points after Sutent dosing as indicated (0, 2, 4, 6, 8, 10, 12, and 24 hr). The plasma supernatant was recovered from the tubes after centrifugation at ×1000 g for 15 min. and the sunitinib levels from the plasma samples were measured by LC/MS/MS. The mean and standard error of the mean of each group at each time point is plotted.

[2] = tested on: Myeloid Derived Suppressor Cells (MDSC); assay: Adoptively transferred MDSC recovered from spleen of BALB/c mice dosed with sunitinib; type: in vivo, mouse; conditions: CFSE+, CD3−, GR1+, CD11b+ cells, 2 days post adoptive transfer, vehicle 17470 +/− 2017
Description: To generate MDSC enriched splenocytes, TUBO cells (1×10^6) were implanted into the flanks of 5 BALB/neuT mice, and left for approx. 20-30 days until tumor volume reached between 1000-1500 mm^3. Mice were then sacrificed, spleens removed and the MDSC enriched splenocytes recovered. Splenocytes were labeled for 10 minutes with 5 μM CFSE, washed with PBS and counted. Labeled cells were subsequently resuspended at 5×10^7 splenocytes/ml in PBS solution and adoptively transferred via an i.v. tail vein injection into naïve BALB/c recipient mice. Three days prior to adoptive transfer, the recipient mice began bi-daily dosing with vehicle or sunitinib malate (Sutent) at 5 mg/kg, 10 mg/kg and 20 mg/kg. Following adoptive transfer, recipient mice continued to receive bi-daily dosing of Vehicle or sunitinib for two further days, after which point the mice were sacrificed, spleens removed, splenocytes recovered and processed for phenotypic analysis.
Splenocytes were counted and resuspended at 5×10^6 cells/ml in FACS staining buffer (PBS, 0.2% (w/v) bovine serum albumin, and 0.02% (w/v) Sodium Azide). For flow cytometry staining of splenocytes, 2.5×10^6 cells were first incubated with anti-bodies to CD16/CD32, 10 minutes at 4° C., to block Fc receptors and minimize non-specific binding. Splenocytes were then stained for 20 minutes at 4° C. with appropriate fluorophore conjugated antibodies (Biolegend) to murine cell surface markers. For T cells (anti-CD3 (Pacific Blue), clone 17A2) and for MDSC (anti-GR-1 (APC), clone RB6-8C5 and anti-CD11b (PerCp Cy5.5), clone M1/70). A live/dead stain was also included. […] To monitor the effect of Sunitinib or Vehicle on the adoptively transferred MDSC survival, we calculated the percentage of CFSE+,CD3−,GR1+,CD11b+ in the live, singlet gate. We then determined the number of adoptively transferred MDSC per spleen by calculating what actual cell number the percentage represented of total splenocytes count. Data was analyzed by FloJo and Graph pad software.

phosphorylated STAT3 = assay: Phosphor-STAT3 ELISA of spleen extracts of TUBO tumor bearing BALB/neuT mice after Sutent; type: in vivo, mouse
Description: (§1) The acute effect of Sutent on the phosphorylation status of STAT3 in the spleen was investigated in a subcutaneous tumor mouse model to evaluate the direct immunomodulatory effects of the compound. Briefly, 10-12 week old female BALB/neuT mice were implanted with 1e6 TUBO cells subcutaneously in the right flank. After forty one days post tumor implant, Sutent was given by oral gavage at 20 mg/kg. At 0, 1, 3, 7 and 24 hrs post Sutent dosing, three animals per timepoint were sacrificed under IAUCUC guidelines and spleens were immediately snap frozen in liquid nitrogen to preserve the phosphorylation status. Spleens from female BALB/c mice were snap frozen to use as healthy mice controls.
(§2) Snap frozen spleens were homogenized at 100 mg tissue per 500 μL lysis buffer (70 mM NaCl, 50 mM β-glycerol phosphate, 10 mM HEPES, 1% Triton X-100, 100 mM Na3VO4, 100 mM PMSF, 1 mg/mL leupeptin) using a polytron tissue homogenizer. Resulting digests were centrifuged at 10,000 g for 15 minutes. The supernatant was isolated and protein concentrations were determined using BCA protein assay kit (Pierce, Rockford, Ill.). Forty micrograms of protein were added to each well of either a total STAT3 (eBioscience, cat no. 85-86101-11) or phosphor-STAT3 (eBioscience, cat no. 85-86102-11) ELISA Kit. Relative levels of either protein were compared with standards provided in the kit and with standards purchased independently (Signaling Technologies, cat no. 9333-S).

total STAT3 = assay: Total STAT3 ELISA of spleen extracts of TUBO tumor bearing BALB/neuT mice after Sutent; type: in vivo, mouse
Description: as §1, §2

[3] = Mendel et al.; cited from earlier work
[4] = intravenous infusion, cited from earlier work
293 cells = assay: Expression of PSMA constructs in transfected 293 cells by FACS; type: cell-based; conditions: 293 cells transfected with PJV7563 vector, stained with mouse anti-PSMA antibody three days later; cell surface expression
Description: The expression of the PSMA cytosolic, secreted, and modified antigens was determined by FACS. Mammalian 293 cells were transfected with the PJV7563 PMED vectors encoding the various immunogenic PSMA polypeptides. Three days later, the 293 cells were stained with mouse anti-PSMA antibody, followed with a fluorescent conjugated (FITC) rat anti-mouse secondary antibody.

human PSMA = assay: ELISA, serum anti-PSMA antibody titers after PMED DNA vaccination; type: in vivo; conditions: Example 7, FIG. 28; Pasteur and C57BL/6 mice; day 35; within the same strain
Description: Serum was subjected to enzyme-linked immunosorbent assays (ELISA) to determine the anti-PSMA and anti-PSCA antibody titers. In brief, ELISA plates were coated with 1 μg/ml of human PSMA or PSCA and incubated overnight at 4° C. Plates were then blocked and incubated at RT for 1 h with 1% bovine serum albumin (BSA). Each serum sample was serially diluted in duplicate starting at a 1:100 dilution and incubated for 1 h at RT. After washing, a horseradish-peroxidise (HRP)-conjugated goat anti-mouse polyclonal IgG antibody was incubated at RT for 1 h. After washing, the TMB Peroxidase EIA-Substrate was incubated at RT for 30 min. The colorimetric reaction was stopped by addition 1N sulfuric acid and the absorbance then read at 450 nm. Titration curves were plotted for each serum sample (sample dilution versus absorbance). The serum titer (subsequently transformed into reciprocal titer) was then taken as the most dilute serum sample tested with an optical density (OD) value of above the lower limit of detection (LLOD; background plus 3 standard deviations) or the serum dilution calculated to achieve an OD value of 1.0. […]
The anti-PSMA and anti-PSCA antibody titers in the serum was determined using ELISA as described in Example 5. […]
Antibody responses induced by the modified and full-length PSMA vaccines were measured in serum from each animal collected on day 35. […]

[5] = tested on: hPSMA full-length protein; assay: IFN-γ ELISPOT, hPSMA modified versus full-length DNA vaccine in C57BL/6 mice; type: in vivo, human; conditions: Example 7, FIG. 26; C57BL/6, PMED days 0, 14, 28; day 35
Excerpt: The immune responses induced by DNA vaccination using a construct encoding an immunogenic PSMA polypeptide (the “human PSMA modified antigen” or “hPSMA modified”) consisting 15-750 amino acids (aa) of the native human PSMA protein of SEQ ID NO: 1 were compared with those induced by the native human full-length PSMA protein (hPSMA full length). Groups of female C57BL/6 mice or female Pasteur (HLA-A2/DR1) transgenic mice were primed on day 0 and boosted on days 14, 28 by PMED administration with a 2 μg dose of a DNA vaccine encoding either hPSMA full-length or hPSMA modified protein. Mice were bled and sacrificed on day 35 (7 days after the third vaccination) and T cell immune responses against the hPSMA full-length protein were determined in splenocytes by IFN-γ ELISPOT assay. For C57BL/6 mice, single cell suspensions of 5×10^5 splenocytes from individual animals were plated per well with […] purified hPSMA protein, 5×10^4 TRAMP-C2 cells alone, or TRAMP-C2 cells expressing hPSMA or a PSMA-PSA-PSCA fusion protein. […] Responses in Pasteur mice were also determined using 10 μg/ml purified PSMA protein or 5×10^4 SK-Mel5 cells that had been transduced with Adenoviral vectors expressing a control protein (Ad-eGFP) or the full-length human PSMA protein (Ad-hPSMA). […] The number of IFN-γ SFC was counted by a CTL reader. […]

[6] = 1 hr after Sutent 20 mg/kg oral gavage
[7] = 3 hrs after Sutent 20 mg/kg oral gavage
[8] = 7 hrs after Sutent 20 mg/kg oral gavage
[9] = 24 hrs after Sutent 20 mg/kg oral gavage

Molecule: CCN(CC)CCNC(=O)c1c(C)[nH]c(/C=C2\C(=O)Nc3ccc(F)cc32)c1C [Sunitinib, butanedioic acid, hydroxy-, (2S)-, compound with N-[2-(diethylamino)ethyl]-5-[(Z)-(5-fluoro-1,2-dihydro-2-oxo-3H-indol-3-ylidine)methyl]-2,4-dimethyl-1H-pyrrole-3-carboxamide (1:1)]
- animals with significantly impaired progression of the tumor after discontinuation of Sutent treatment (subcutaneous TUBO tumors): 60 % of the animals
- time by which sunitinib cleared the blood ([1]; 10 mg/kg BID orally, after the second dose): ≤ 18 h
- time by which sunitinib cleared the blood ([1]; 20 mg/kg SID orally, post Sutent dosing): ≤ 12 h
- concentration at 2 h ([1]; BALB/neuT, mouse, plasma, oral, 10 mg/kg BID (6 hr interval) orally, read-out: blood sunitinib level): > 50 ng/mL
- concentration at 4 h ([1]; BALB/neuT, mouse, plasma, oral, 10 mg/kg BID orally, by 4 hrs, read-out: blood sunitinib level): < 50 ng/mL
- concentration at 6 h ([1]; BALB/neuT, mouse, plasma, oral, 20 mg/kg SID orally, at 6 hrs, read-out: blood sunitinib level): 50 ng/mL
- concentration at 2 h ([1]; BALB/neuT, mouse, plasma, oral, 20 mg/kg SID orally, read-out: blood sunitinib level): > 50 ng/mL
- MDSC #/spleen Mean +/− SEM ([2]; Sunitinib 5 mg/kg bi-daily): 10980 +/− 1082
- MDSC #/spleen Mean +/− SEM ([2]; Sunitinib 10 mg/kg bi-daily): 4207 +/− 338
- MDSC #/spleen Mean +/− SEM ([2]; Sunitinib 20 mg/kg bi-daily): 4440 +/− 440
- Phospho-STAT3 relative level, Mean (phosphorylated STAT3; [6]): 0.23
- Phospho-STAT3 relative level, individual values (phosphorylated STAT3; [6]): 0.26 and 0.25 and 0.19
- Phospho-STAT3 relative level, Mean (phosphorylated STAT3; [7]): 0.19
- Phospho-STAT3 relative level, individual values (phosphorylated STAT3; [7]): 0.19 and 0.15 and 0.22
- Phospho-STAT3 relative level, Mean (phosphorylated STAT3; [8]): 0.27
- Phospho-STAT3 relative level, individual values (phosphorylated STAT3; [8]): 0.19 and 0.31 and 0.29
- Phospho-STAT3 relative level, Mean (phosphorylated STAT3; [9]): 1.44
- Phospho-STAT3 relative level, individual values (phosphorylated STAT3; [9]): 1.54 and 1.30 and 1.47
- Total STAT3 relative level, Mean (total STAT3; [6]): 0.09
- Total STAT3 relative level, individual values (total STAT3; [6]): 0.12 and 0.08 (2×)
- Total STAT3 relative level, Mean (total STAT3; [7]): 0.13
- Total STAT3 relative level, individual values (total STAT3; [7]): 0.15 and 0.09 and 0.16
- Total STAT3 relative level, Mean (total STAT3; [8]): 0.08
- Total STAT3 relative level, individual values (total STAT3; [8]): 0.10 and 0.07 and 0.08
- Total STAT3 relative level, Mean (total STAT3; [9]): 0.08
- Total STAT3 relative level, individual values (total STAT3; [9]): 0.08
- minimum sunitinib blood level necessary to effectively inhibit tumor growth in monotherapy [3]: 50 ng/mL

Molecule: CP-870893: fully human agonistic CD40 monoclonal antibody, SEQ ID NO: 40 and 41
- maximum tolerated dose (MTD) ([4]; patients with advanced solid tumors): 0.2 mg/kg
- dose-limiting toxicities ([4]; phase I clinical study): grade 3 CRS and grade 3 urticaria

Molecule: full length human PSMA (SEQ ID NO: 1): native human full-length PSMA protein (aa 1-750), SEQ ID NO: 1; tested as DNA vaccine
- Average mean fluorescent intensity (293 cells): 6425
- serum anti-PSMA antibody titers (human PSMA): equivalent anti-PSMA antibody titer
- IFN-γ T cell responses to TRAMP C2-PSMA or purified hPSMA protein [5]: equivalent T cell immune responses
